{"source": "patent US20230151101A1", "about": "“METHODS AND COMPOSITIONS TO ENHANCE HUMORAL IMMUNITY TO REDUCE CYTOMEGALOVIRUS INFECTION AND REACTIVATION BY IL-6 INHIBITION” (Fred Hutchinson Cancer Center, priority 2021, published 2023)", "type_in_all_cases": "in vivo, human", "key": {"[1]": {"tested_on": "HCMV", "assay": "phase I/II clinical trial of tocilizumab added to standard GVHD prophylaxis: HCMV reactivation vs historical cohort", "conditions": "at risk BMT recipients; compared to non-randomized similarly transplanted historical cohort", "excerpt": "FIGS. 9A through 9C. IL-6 inhibition with tocilizumab is associated with low rates of significant CMV reactivation relative to historical controls. Human CMV (HCMV) viremia over time after bone marrow transplantation (BMT) in patients from (FIG. 9A) a phase I/II clinical trial of the addition of tocilizumab to standard graft versus host disease (GVHD) prophylaxis (left) or (FIG. 9B) a contemporaneous historical control cohort (right). FIG. 9C. Depiction of CMV reactivation > 600 versus < 600 copies/µL of plasma in the two patient cohorts.\n(§1) Patients. Patients were enrolled in reported phase I/II (ACTRN12612000726853) or phase III (ACTRN12614000266662) clinical trials. The studies were approved by the Royal Brisbane and Womens Hospital institutional human ethics committee and all patients provided signed informed consent.\nHCMV monitoring. CMV viral load was monitored using the COBAS® Amplicor CMV Monitor test (Roche Diagnostics, Basel, Switzerland) as previously described (Tey SK, Kennedy GA, Cromer D, Davenport MP, Walker S, Jones LI, et al. Clinical assessment of anti-viral CD8+ T cell immune monitoring using QuantiFERON-CMV® assay to identify high risk allogeneic hematopoietic stem cell transplant patients with CMV infection complications. PloS one. 2013, 8(10), e74744). […]"}, "[2]": {"tested_on": "CD19+ B cells", "assay": "B cell subsets and B cell counts in peripheral blood after clinical BMT", "procedure": "(§2) FIGS. 7A through 7G. […] Patients included for the evaluation of human CMV (HCMV) reactivation (as in FIG. 6) were analyzed for HCMV specific T cells and other immune subsets. A total of 50 PBMC samples at day + 60 after bone marrow transplantation (BMT) were identified based on availability of HCMV tetramers and peptides. FIG. 7A. Frequency of HCMV tetramer positive CD8^+ T cells in patients with or without HCMV reactivation. FIG. 7B. Frequency of cytokine (IFNy^+TNF^+) producing CD8^+ T cells following HCMV peptide stimulation in patients with or without HCMV reactivation. FIG. 7C. Frequency of HCMV tetramer positive CD8^+ T cells in patients receiving tocilizumab (TCZ) (n = 21) or placebo control (Ctrl) (n = 29). FIG. 7D. Frequency of cytokine (IFNv^+TNF^+) producing CD8^+ T cells in patients receiving TCZ or placebo. FIG. 7E. Memory phenotype for CD4^+ T cells in patients receiving TCZ or placebo. FIG. 7F. Memory phenotype for CD8^+ T cells in patients receiving TCZ or placebo. FIG. 7G. Proportions of naive B cells, mature B cells and plasmablasts in a subset of the above cohort (n = 19 for control and 17 for TCZ groups respectively). *P < 0.05.\nFIGS. 12A through 12B. The effects of IL-6 inhibition with tocilizumab (TCZ) on B cell recovery following clinical BMT. FIG. 12A. B cell counts in peripheral blood in at-risk patients at day + 30 and + 60 after BMT. FIG. 12B. B cell counts in peripheral blood at day + 60 after bone marrow transplantation (BMT), classified into 4 groups based on the TCZ administration and the presence of acute graft versus host disease (aGVHD).\nFurthermore, there was no difference in the memory phenotypes of CD4^+ and CD8^+ T cells between placebo and TCZ treated patients (FIGS. 7E - 7F). The inventors also analyzed CD19^+ B cells in available samples (n = 19 for Ctrl and n = 17 for TCZ)."}, "[3]": {"tested_on": "HCMV-specific IgG", "assay": "HCMV-specific IgG titers in plasma at day +30 after BMT (chemiluminescence, Diasorin Liaison XL)", "excerpt": "FIGS. 8A through 8C. IL-6 inhibition with tocilizumab is associated with the maintenance of human CMV (HCMV)-specific IgG. FIGS. 8A to 8C. Quantification of HCMV-specific IgG titers in plasma at day + 30 after bone marrow transplantation (BMT). FIG. 8A. D^-R^+ and D^+R^+ patients are classified into 3 groups based on HCMV reactivation (reactivation before day + 35, reactivation between day + 35 and + 100, no reactivation by day + 100) and respective HCMV-specific IgG titers are shown. FIG. 8B. HCMV-specific IgG in D^-R^+ and D^+R^+ patients are shown for tocilizumab (TCZ) versus placebo control (Ctrl) groups (left). The analysis for the subset of unrelated transplants is shown right. FIG. 8C. Titers of HCMV-specific IgG in D^+R^- patients are shown for TCZ versus placebo control groups. Dotted lines indicate detection limit of the HCMV-IgG assay (5 -180 U/mL).\nTotal and HCMV-specific IgG. The concentration of total IgG was determined with Enzyme-linked immunosorbent assay (Invitrogen) as per the manufacturer’s protocol. Quantification of HCMV IgG was conducted by Sullivan Nicolaides Pathology Queensland (Bowen Hills, QLD, Australia) using a chemiluminescence method on the Diasorin Liaison® XL platform. This semiquantitative method allows for a detection range of 5 - 180 Unit/mL.\nGiven the lack of effects of IL-6 inhibition on T and B cells, HCMV-specific IgG was quantified after BMT. […]"}, "[4]": {"tested_on": "MCP-1", "assay": "plasma MCP-1 in phase III BMT patients", "conditions": "day 60 after BMT", "excerpt": "(§3) FIGS. 11A through 11D. IL-6 inhibition with tocilizumab (TCZ) attenuates human CMV (HCMV) viremia after clinical BMT. FIG. 11A. Kinetics of HCMV viremia over time for placebo control versus TCZ groups. FIG. 11B (left). The number of PCR positive events of HCMV viremia plotted in (A) and depicted in the two patient cohorts. FIG. 11B (right). Distribution of HCMV reactivation in the patient cohorts receiving volunteer unrelated donor (VUD) grafts. FIG. 11C. Plasma concentration of MCP-1 at day + 60 after bone marrow transplantation (BMT) in patients was quantified and shown in relation to HCMV reactivation (≥ 600 copies/µL) and TCZ treatment. FIG. 11D. Pair-wise comparison of MCP-1 from day + 30 to + 60 in patients without (left) or with (right) significant CMV reactivation (≥ 600 copies/µL) in the placebo group. *P < 0.05; ****P < 0.0001.\nFlow cytometry. Antibody stained single-cell suspensions were analyzed on an LSR Fortessa™ cytometer in Australia or a FACSymphony™ A3 in Seattle USA (Becton Dickinson) and data are processed using FlowJo version 10 (Tree Star). Cytokines levels in the plasma were determined with the BD Cytometric Bead Array system (BD Biosciences).\nFurthermore, high level HCMV reactivation (≥ 600 copies/ul) was associated with a greater increase in MCP-1 between day + 30 and + 60 than seen in patients with low level reactivation (FIG. 11D). […]"}, "[5]": {"tested_on": "HCMV specific T cells", "assay": "HCMV-specific CD8+ T cells and T cell memory phenotype in PBMC at day +60 after BMT (flow cytometry)", "procedure": "as §2\nNext the effect of IL-6 inhibition was investigated on donor T and B cell responses after BMT. Firstly, HCMV-specific CD8^+ T cells defined by HCMV-tetramer staining or cytokine production (IFNγ and/or TNF) were analyzed following HCMV peptide stimulation in conjunction with markers of T cell memory (CD45RA and CCR7). The inventors identified 50 PBMC samples at day + 60 after BMT based on availability of HCMV tetramers (and/or peptides). […] Within the subset of patients with HCMV reactivation, HCMV tetramer^+ cells were present at a lower frequency in patients with higher HCMV viremia (FIG. 7A right)."}, "[6]": {"tested_on": "HCMV", "assay": "phase III randomized placebo-controlled trial: HCMV viremia and cumulative incidence of HCMV reactivation after allogenic BMT", "excerpt": "FIGS. 6A through 6D. IL-6 inhibition with tocilizumab reduces human CMV (HCMV) reactivation in clinical allogenic bone marrow transplantation (BMT) recipients. Participants of a phase 3 clinical trial who were enrolled at Royal Brisbane and Women’s Hospital and were at-risk of HCMV reactivation were included for analysis (n = 85). These patients were either seropositive for HCMV (R^+) or received grafts from seropositive donors (D^+). FIGS. 6A to 6C. Cumulative incidence of any detectable HCMV reactivation after BMT in at-risk patients. Solid lines represent the tocilizumab (TCZ) group and broken lines represent the placebo control group. FIG. 6A. HCMV reactivation in the total cohort (left) or the subset of patients with grade 0 - I acute graft versus host disease (aGVHD) (right). FIG. 6B. HCMV reactivation in all recipients of volunteer unrelated donor (VUD) grafts (left) or the subset of patients with grade 0 - I aGVHD (right). FIG. 6C. HCMV reactivation in all recipients of matched sibling donor (MSD) grafts (left) or those with grade 0 - I aGVHD (right). FIG. 6D. Distribution of HCMV serostatus (D^+R^-, D^+R^+ and D^-R^+) in recipients of MSD or VUD grafts.\nas §3, §1\nHCMV monitoring. CMV viral load was monitored using the COBAS® Amplicor CMV Monitor test (Roche Diagnostics, Basel, Switzerland) as previously described (Tey SK, Kennedy GA, Cromer D, Davenport MP, Walker S, Jones LI, et al. Clinical assessment of anti-viral CD8+ T cell immune monitoring using QuantiFERON-CMV® assay to identify high risk allogeneic hematopoietic stem cell transplant patients with CMV infection complications. PloS one. 2013, 8(10), e74744). Cumulative incidence of any detectable HCMV viremia is plotted up to day + 100 after BMT and HCMV is censored at day + 100 of BMT or the time of death if this occurred prior to day 100.\nStatistics. Results are presented as median ± interquartile range and the Mann-Whitney U test was used for comparisons. Wilcoxon test is conducted for pair-wise comparisons. Ordinary least-squares method was used in the linear or semi-log regression analysis. A two-sided P value of 0.05 was considered statistically significant. […]"}}}
{"substance": "tocilizumab", "values": [{"measurement": "rates of significant HCMV reactivation requiring preemptive therapy (> 600 copies/µL)", "setting": "[1]", "value": "low rates"}, {"measurement": "absolute numbers of B cells in blood", "setting": "[2]; day +30 or +60, presence or absence of TCZ", "value": "not different"}, {"measurement": "B cell suppression in patients with grade II-IV acute GVHD", "setting": "[2]; day +60", "value": "did appear to mitigate"}, {"measurement": "frequencies of IgD+CD27- naïve B cells, IgD-CD27+ mature B cells or CD38hi plasmablasts", "setting": "[2]; n = 19 Ctrl, n = 17 TCZ", "value": "did not impact"}, {"measurement": "effect on HCMV-IgG titers by graft type", "setting": "[3]; day +30 plasma, VUD subset", "value": "predominantly observed in recipients of VUD grafts"}, {"measurement": "HCMV-IgG in day +30 plasma", "setting": "[3]; seropositive recipients (D-R+ and D+R+), TCZ vs placebo", "value": "higher"}, {"measurement": "increase of plasma MCP-1 with HCMV reactivation (≥ 600 copies/ul)", "setting": "[4]", "value": "not observed"}, {"measurement": "frequency of cytokine-producing CD8+ T cells", "setting": "[5]; day +60 PBMC, HCMV peptide stimulation, TCZ vs placebo", "value": "did not have any significant effect"}, {"measurement": "frequency of HCMV-tetramer+CD8+ T cells", "setting": "[5]; day +60 PBMC, TCZ (n = 21) vs placebo (n = 29)", "value": "did not have any significant effect"}, {"measurement": "memory phenotypes of CD4+ and CD8+ T cells", "setting": "[5]; placebo vs TCZ treated patients", "value": "no difference"}, {"measurement": "benefit from treatment by serostatus", "setting": "[6]; HCMV seropositive patients receiving seronegative grafts (D-R+)", "value": "maximum benefit"}, {"measurement": "HCMV viremia", "setting": "[6]; TCZ vs placebo, at-risk patients (n = 85)", "value": "a trend towards lower HCMV viremia"}, {"measurement": "HCMV reactivation, TCZ versus placebo", "setting": "[6]; recipients of matched sibling donor grafts", "value": "no difference"}, {"measurement": "protection on HCMV reactivation", "setting": "[6]; recipients of volunteer unrelated donor (VUD) grafts, independent of acute GVHD", "value": "most profound"}, {"measurement": "cumulative incidence of HCMV reactivation", "setting": "[6]; total cohort, TCZ vs placebo, independent of acute GVHD", "value": "a trend towards lower cumulative incidence"}]}
